Literature values as cited in patent US20230091009A1, “METHOD FOR PROMOTING GROWTH OF GAS-FERMENTED MICROORGANISMS” (HARBIN INSTITUTE OF TECHNOLOGY, SHENZHEN, priority 2021, published 2023).

Settings: ambient conditions, even in a supersaturated state

In the case of `[HH]` [hydrogen], the solubility in water is given as “about 0.79 mmol/l”.
